Data taken from US6383773B2, “Penicillin conversion” (Massachusetts Institute of Technology, priority 1998, dated 2002).

Assays:
[1] = target: T1, expandase from N. lactamdurans (Amycolatopsis lactamdurans, UniProt Q03047); test: Ring expansion by cell-free extracts of S. lividans containing pUL702-202a (Example 7); format: biochemical; conditions: S. lividans pUL702-202a cell-free extract 6 mg/ml protein, substrate 5.6 mM, after 2 h of reaction
T1 construct: made in house; host or cells: S. lividans 1326 transformed with pUL702-202a, crude cell-free extract
T1 sequence (Q03047 whole entry): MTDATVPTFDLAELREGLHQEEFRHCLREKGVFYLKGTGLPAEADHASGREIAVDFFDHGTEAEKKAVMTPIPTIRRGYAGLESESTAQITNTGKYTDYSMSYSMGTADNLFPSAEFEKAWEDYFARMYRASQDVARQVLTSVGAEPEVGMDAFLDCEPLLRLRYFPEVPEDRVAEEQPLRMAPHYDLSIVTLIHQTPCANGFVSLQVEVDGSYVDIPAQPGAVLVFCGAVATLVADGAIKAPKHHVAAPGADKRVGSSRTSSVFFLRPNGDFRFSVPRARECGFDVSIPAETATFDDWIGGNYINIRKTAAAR
Description: Microorganism, Medium and Culture Conditions: S. lividans 1326 was used in all experiments. Cultures were grown in 250 ml baffled flasks containing 40 ml of MST medium. Each flask was inoculated with 50 μl of a spore suspension (prepared and stored at −80° C. in 20% glycerol) and incubated at 30° C., 250 rpm, for 48 h.
Plasmids: The plasmid pUL702-202a was a gift from J. F. Martin (University of León, Spain). This vector harboured a 4.3 Kb BglII fragment containing the epimerase and expandase genes from Nocardia lactamdurans inserted at the BglII site on pIJ702. The plasmid pHJ11 was constructed by cloning a 3 Kb BglII fragment containing the expandase gene from S. clavuligerus 3585 into pIJ702 at the BglII site.
Ring Expansion Reaction: The ring expansion mixture contained 1.8 mM FeSO4, 1.28 mM α-ketoglutarate, 6 mg/ml protein (cell-free extract), 8 mM KCl, 8 mM MgSO4, 14 mM DTT and 50 mM TrisHCl (pH 7.4) in a final volume of 2.5 ml. Substrate concentration was 5.6 mM. Additions were made following the order established by Shen et al. (Enzyme Microb. Technol. 6:402-404, 1984). Reaction mixtures were incubated in test tubes at 220 rpm, 30° C. At different times, 0.5 ml samples were taken and the reaction was stopped by adding 0.5 ml of methanol. […] Biotransformation activity was detected by paper disc-agar diffusion bioassay. […]

[2] = test system: S. clavuligerus NP1 resting cells; test: Penicillin G ring expansion by resting cells, paper disc-agar diffusion bioassay (Example 1); format: cell-based; conditions: for DAOG produced: after 3-6 hours of reaction
Description: Resting Cells: From a seed culture (in MST), 0.5 ml was transferred to new flasks containing 40 ml of the same medium. Cells were grown at 30° C., 250 rpm for 24 h. Mycelia from each flask were washed twice, and finally, resuspended in 10 ml of distilled water. Four ml of this cell suspension were used in the reaction mixture.
Ring Expansion Reaction: We defined ring expansion reaction conditions as modifications of the standard reaction mixture for expandase reactions described by Maeda et al. (Maeda et al., Enzyme Microb. Technol. 17:231-34, 1995) except that penicillin G was used a substrate instead of penicillin N. Additions were made following the order established by Shen et al. (Shen et al., Enzyme Microb. Technol. 6:402-404, 1984. Reaction mixtures were incubated in test tubes (cell-free extract) or 250 ml baffled flasks (resting cells) at 220 rpm, 30° C. Reactions containing the protein extract were stopped at various times (see Table 1 and Figure Legends) by mixing 0.5 ml of assay solution with 0.5 ml of methanol. In the case of resting cells, samples were centrifuged to remove cells and supernatants were transferred to new tubes. Expandase activity was detected by paper disc-agar diffusion bioassay.
Detection of Expandase Activity: As mentioned above, expandase activity was detected by assaying production of a growth-inhibitory zone in a paper disc-agar diffusion bioassay. Paper discs were saturated with 200 μl of the reaction mixture (cell-free extracts or supernatant (resting cells) as follows. Two discs were superimposed and four 50 μl samples were applied. After each application, the discs were allowed to dry for 20 min at 37° C. under a laminar hood and, finally, they were placed on LB (1% tryptone, 0.5% NaCl, 0.5% yeast extract, 0.1% glucose) 0.8% agar medium seeded with E. coli ESS (a β-lactam supersensitive mutant), and the plates were incubated overnight at 37° C. The formation of DAOG and/or other cephalosporin(s) was determined by including 50,000 IU/ml of penicillinase (Difco Bacto penase concentrate, Difco Laboratories, Detroit, Mich.) in the assay plates. This penicillinase is a narrow spectrum β-lactamase that attacks penicillins but not cephalosporins. The diameters of zones of growth inhibition were measured and quantified with a calibration curve using DAOG as standard.

[3] = test system: resting S. clavuligerus NP1 cells; test: Penicillin G conversion by resting cells: buffer, preincubation, substrate concentration (Example 4); format: cell-based
Description: Microorganisms, Media, and Culture Conditions: S. clavuligerus mutant NP-1, described in Example 1 was used for these studies. A seed culture was made by inoculating a spore suspension (40 μl) into 40 ml MST medium in 250 ml baffled flasks, and incubating for 2 days at 30° C. and 250 rpm. One ml of the seed culture was used as inoculum for the main culture which contained 80 ml of MST medium in 500 ml unbaffled flasks. The flasks were incubated for 24 h at 30° C. and 250 rpm.
Preparation of Resting Cells: Cells were harvested by centrifugation at 14,000×g, for 15 min at 4° C. and washed twice with cold deionized water. They were resuspended in 10 ml of water.
Ring Expansion Reaction: The standard reaction mixture (10 ml) contained 0.05 M Tris-HCl pH 7.4, 8.0 mM KCl, 8.0 mM MgSO4.7H2O, 4.0 mM ascorbic acid, 1.8 mM FeSO4.7H2O, 1.28 mM α-ketoglutaric acid, 20 mg/ml penicillin G and 4.0 ml cell suspension. The order of addition of the components were as previously described (Shen et al., Enzyme Microb. Technol. 6:402-404, 1984). The reaction started when penicillin G was added to the reaction mixture which was incubated at 30° C. and 220 rpm.
Expandase Assay: Product formation was estimated by the paper disk-agar diffusion bioassay as described in example 1, using deacetoxycephalosporin G as standard. Escherichia coli strain Ess, a β-lactam supersensitive, mutant was used as the assay microorganism.

SMILES: CC1(C)S[C@@H]2[C@H](NC(=O)Cc3ccccc3)C(=O)N2[C@H]1C(=O)O [Penicillin G, penicillin G]
- production of cephalosporins [1]: approximately 8 μg/ml
- μg DAOG/ml ([2]; resting cells 13 mg/ml dry cell weight, 2 mg/ml penicillin G, 2 h, cofactor omitted: ATP (0.7 mM)): 10.0 μg DAOG/ml
- μg DAOG/ml ([2]; resting cells 13 mg/ml dry cell weight, 2 mg/ml penicillin G, 2 h, cofactor omitted: Ascorbic acid (4 mM)): 3.0 μg DAOG/ml
- μg DAOG/ml ([2]; resting cells 13 mg/ml dry cell weight, 2 mg/ml penicillin G, 2 h, cofactor omitted: DTT (16 mM)): 15.5 μg DAOG/ml
- μg DAOG/ml ([2]; resting cells 13 mg/ml dry cell weight, 2 mg/ml penicillin G, 2 h, cofactor omitted: FeSO4.7H2O (1.8 mM)): 3.2 μg DAOG/ml
- μg DAOG/ml ([2]; resting cells 13 mg/ml dry cell weight, 2 mg/ml penicillin G, 2 h, cofactor omitted: KCl (8 mM)): 11.5 μg DAOG/ml
- μg DAOG/ml ([2]; resting cells 13 mg/ml dry cell weight, 2 mg/ml penicillin G, 2 h, cofactor omitted: MgSO4.7H2O (8 mM)): 10.1 μg DAOG/ml
- μg DAOG/ml ([2]; resting cells 13 mg/ml dry cell weight, 2 mg/ml penicillin G, 2 h, cofactor omitted: None): 10.5 μg DAOG/ml
- μg DAOG/ml ([2]; resting cells 13 mg/ml dry cell weight, 2 mg/ml penicillin G, 2 h, cofactor omitted: α-ketoglutarate (1.28 mM)): 3.7 μg DAOG/ml
- DAOG produced ([2]; resting cells, Maeda et al. reaction conditions (0.04 mM FeSO4, 0.64 mM α-ketoglutarate)): about 6 μg/ml
- DAOG produced ([2]; resting cells, inventive conditions (1.8 mM FeSO4, 1.28 mM α-ketoglutarate)): about 19 μg/ml
- DAOG produced relative to complete reaction ([2]; resting cells, two hours, omission of Fe2+, α-ketoglutarate, or ascorbic acid): about 30%
- μg DAOG/ml ([2]; resting cells, ATP concentration 0 (mM)): 6.6 μg DAOG/ml
- μg DAOG/ml ([2]; resting cells, ATP concentration 0.14 (mM)): 6.4 μg DAOG/ml
- μg DAOG/ml ([2]; resting cells, ATP concentration 0.35 (mM)): 6.4 μg DAOG/ml
- μg DAOG/ml ([2]; resting cells, ATP concentration 0.7 (mM)): 6.6 μg DAOG/ml
- μg DAOG/ml ([2]; resting cells, ATP concentration 2.4 (mM)): 6.6 μg DAOG/ml
- μg DAOG/ml ([2]; resting cells, ATP concentration 3.5 (mM)): 4.7 μg DAOG/ml
- μg DAOG/ml ([2]; resting cells, Ascorbate concentration 0 (mM)): 2.4 μg DAOG/ml
- μg DAOG/ml ([2]; resting cells, Ascorbate concentration 0.8 (mM)): 4.0 μg DAOG/ml
- μg DAOG/ml ([2]; resting cells, Ascorbate concentration 2 (mM)): 6.0 μg DAOG/ml
- μg DAOG/ml ([2]; resting cells, Ascorbate concentration 4 (mM)): 6.4 μg DAOG/ml
- μg DAOG/ml ([2]; resting cells, Ascorbate concentration 8 (mM)): 6.4 μg DAOG/ml
- increase of DAOG production ([2]; resting cells, omission of DTT): approximately 50%
- percent conversion ([3]; 0.015 mg/ml substrate, subsequent experiments): ≤ 16.5%
- percent conversion ([3]; 0.063 mg/ml of penicillin G): about 9.0%
- percent conversion ([3]; 2 mg/ml of penicillin G): about 1.0%
- percent conversion ([3]; 8 mg/ml of penicillin G): about 0.4%
- increase of cephalosporin production versus 0.05 M Tris-HCl pH 7.4 ([3]; 0.05 M MOPS pH 6.5 or 0.05 M HEPES pH 6.5): more than two-fold
- penicillin G conversion ([3]; cells preincubated 3 hours with Fe2+ and ascorbic acid, with or without α-ketoglutarate): virtually eliminated
- reduction of total production ([3]; cells preincubated 3 hours with either buffer, Fe2+, ascorbic acid, or α-ketoglutarate): about 50%
